Source: PubChem BioAssay AID256 (DTP/NCI, 2004)
Values joined by “and” are separate entries in the source; they are usually repeats but may differ in a detail not shown here. Identical values can stand only once. Toxic doses and inconclusive results are not listed.

System: CD2F1 mice, L1210 leukemia ip, survival T/C
Test: NCI In Vivo Anticancer Drug Screen. Data for tumor model L1210 Leukemia (intraperitoneal) in CD2F1 (CDF1) mice
Details: higher = longer survival
Procedure, shortened: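 Mice carrying a transplanted tumor received test compound or vehicle alone. The value is the measurement in the treated group divided by that in the vehicle-treated control group.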

[1] = endpoint: mean survival time, dose: 100.0 mg/kg/injection, schedule: Q01DX001 (ip), vehicle: saline
[2] = endpoint: mean survival time, dose: 200.0 mg/kg/injection, schedule: Q01DX001 (ip), vehicle: saline
[3] = endpoint: mean survival time, dose: 400.0 mg/kg/injection, schedule: Q01DX001 (ip), vehicle: saline
[4] = endpoint: mean survival time, dose: 100.0 mg/kg/injection, schedule: Q04DX003 (ip), vehicle: saline with Tween-80
[5] = endpoint: mean survival time, dose: 200.0 mg/kg/injection, schedule: Q04DX003 (ip), vehicle: saline with Tween-80
[6] = endpoint: mean survival time, dose: 12.5 mg/kg/injection, schedule: Q01DX009 (ip), vehicle: saline with Tween-80
[7] = endpoint: mean survival time, dose: 25.0 mg/kg/injection, schedule: Q01DX009 (ip), vehicle: saline with Tween-80
[8] = endpoint: mean survival time, dose: 50.0 mg/kg/injection, schedule: Q01DX009 (ip), vehicle: saline with Tween-80
[9] = endpoint: mean survival time, dose: 100.0 mg/kg/injection, schedule: Q01DX009 (ip), vehicle: saline with Tween-80

In the case of `CS(C)=O.O=C([O-])CC(=O)[O-].[NH-]CC(O)CN(Cc1ccccc1)CC(O)CN.[Pt+4]` (stereo not drawn), the T/C (endpoint: median survival time, dose: 10.0 mg/kg/injection, schedule: Q04DX003 (ip), vehicle: water) is reported as 107 % of control, the T/C (endpoint: median survival time, dose: 20.0 mg/kg/injection, schedule: Q04DX003 (ip), vehicle: water) is reported as 104 % of control and the T/C (endpoint: median survival time, dose: 40.0 mg/kg/injection, schedule: Q04DX003 (ip), vehicle: water) is reported as 104 % of control. For the same compound, the T/C (endpoint: median survival time, dose: 50.0 mg/kg/injection, schedule: Q04DX003 (ip), vehicle: water) was 100 % of control, the T/C (endpoint: median survival time, dose: 80.0 mg/kg/injection, schedule: Q04DX003 (ip), vehicle: water) was 108 % of control and the T/C (endpoint: median survival time, dose: 100.0 mg/kg/injection, schedule: Q04DX003 (ip), vehicle: water) was 104 % of control. For the same compound, the T/C (endpoint: median survival time, dose: 200.0 mg/kg/injection, schedule: Q04DX003 (ip), vehicle: water) was 117 % of control and 110 % of control and the T/C (endpoint: median survival time, dose: 400.0 mg/kg/injection, schedule: Q04DX003 (ip), vehicle: water) was 114 % of control.

With `O=C(O)COc1ccc(NC(=O)COc2ccccc2)cc1` the T/C (endpoint: mean survival time, dose: 25.0 mg/kg/injection, schedule: Q01DX001 (ip), vehicle: saline with Tween-80) was 100 % of control, the T/C (endpoint: mean survival time, dose: 50.0 mg/kg/injection, schedule: Q01DX001 (ip), vehicle: saline with Tween-80) was 97 % of control and the T/C (endpoint: mean survival time, dose: 100.0 mg/kg/injection, schedule: Q01DX001 (ip), vehicle: saline with Tween-80) was 100 % of control.

In the case of `O=[N+]([O-])c1ccc(N=C(Cl)N2CCCCC2)cc1`, the T/C [1] is reported as 109 % of control, the T/C [2] is reported as 103 % of control and the T/C [3] is reported as 107 % of control.

With `CC(=O)Nc1ccc([N+](=O)[O-])c(C(F)(F)F)c1` the T/C [4] was 98 % of control and the T/C [5] was 103 % of control.

For `O=[N+]([O-])c1ccccc1-c1nn(-c2ccccc2)c2ccccc12`, the T/C (endpoint: mean survival time, dose: 12.5 mg/kg/injection, schedule: Q04DX002 (ip), vehicle: saline with Tween-80) was 102 % of control, the T/C (endpoint: mean survival time, dose: 25.0 mg/kg/injection, schedule: Q04DX002 (ip), vehicle: saline with Tween-80) was 105 % of control and the T/C (endpoint: mean survival time, dose: 50.0 mg/kg/injection, schedule: Q04DX002 (ip), vehicle: saline with Tween-80) was 90 % of control.

With `O=S(=O)(CCCCCl)Nc1ccccn1` the T/C (endpoint: mean survival time, dose: 100.0 mg/kg/injection, schedule: Q04DX002 (ip), vehicle: saline with Tween-80) was 91 % of control, the T/C (endpoint: mean survival time, dose: 200.0 mg/kg/injection, schedule: Q04DX002 (ip), vehicle: saline with Tween-80) was 94 % of control and the T/C (endpoint: mean survival time, dose: 400.0 mg/kg/injection, schedule: Q04DX002 (ip), vehicle: saline with Tween-80) was 109 % of control.

`C/C1=C/C2=CC(C)C[C@@H]2C(=O)[C@]2(C)C(=O)CC(C)(C)[C@H]2CC1=O` (stereo partly drawn) was tested, and the T/C (endpoint: mean survival time, dose: 0.13 mg/kg/injection, schedule: Q01DX009 (ip), vehicle: Klucel (hydroxypropylcellulose) (HPC)) was 98 % of control, the T/C (endpoint: mean survival time, dose: 0.25 mg/kg/injection, schedule: Q01DX009 (ip), vehicle: Klucel (hydroxypropylcellulose) (HPC)) was 95 % of control and the T/C (endpoint: mean survival time, dose: 0.5 mg/kg/injection, schedule: Q01DX009 (ip), vehicle: Klucel (hydroxypropylcellulose) (HPC)) was 93 % of control. For the same compound, the T/C (endpoint: mean survival time, dose: 1.0 mg/kg/injection, schedule: Q01DX009 (ip), vehicle: Klucel (hydroxypropylcellulose) (HPC)) was 90 % of control.

With `COc1cc(OC)c(NC(=O)OCCOc2cc(C)c(Cl)c(C)c2)cc1Cl` the T/C [6] was 95 % of control, the T/C [7] was 95 % of control and the T/C [8] was 98 % of control. For the same compound, the T/C [9] was 88 % of control.

In the case of `Oc1cc(O)c(Cl)cc1Cl`, the T/C (endpoint: mean survival time, dose: 25.0 mg/kg/injection, schedule: Q01DX001 (ip), vehicle: saline) is reported as 103 % of control, the T/C (endpoint: mean survival time, dose: 50.0 mg/kg/injection, schedule: Q01DX001 (ip), vehicle: saline) is reported as 95 % of control and the T/C [1] is reported as 95 % of control and 104 % of control.

With `Nc1nc(N)c(CCCOc2ccc([N+](=O)[O-])cc2Cl)c(N)n1` the T/C (endpoint: mean survival time, dose: 100.0 mg/kg/injection, schedule: Q04DX002 (ip), vehicle: Klucel (hydroxypropylcellulose) (HPC)) was 90 % of control, the T/C (endpoint: mean survival time, dose: 200.0 mg/kg/injection, schedule: Q04DX002 (ip), vehicle: Klucel (hydroxypropylcellulose) (HPC)) was 94 % of control and the T/C (endpoint: mean survival time, dose: 400.0 mg/kg/injection, schedule: Q04DX002 (ip), vehicle: Klucel (hydroxypropylcellulose) (HPC)) was 90 % of control.

With `C=CCC(C)(C)/C=N/N` the T/C (endpoint: mean survival time, dose: 37.5 mg/kg/injection, schedule: Q01DX009 (ip), vehicle: saline) was 101 % of control, the T/C (endpoint: mean survival time, dose: 75.0 mg/kg/injection, schedule: Q01DX001 (ip), vehicle: saline) was 95 % of control and the T/C (endpoint: mean survival time, dose: 75.0 mg/kg/injection, schedule: Q01DX009 (ip), vehicle: saline) was 100 % of control. The T/C (endpoint: mean survival time, dose: 150.0 mg/kg/injection, schedule: Q01DX001 (ip), vehicle: saline) was 98 % of control and the T/C (endpoint: mean survival time, dose: 150.0 mg/kg/injection, schedule: Q01DX009 (ip), vehicle: saline) was 107 % of control.

For `C1=CCOCOC1`, the T/C [6] was 106 % of control, the T/C [7] was 96 % of control and the T/C [8] was 114 % of control and 102 % of control. For the same compound, the T/C [9] was 100 % of control and 103 % of control, the T/C [4] was 100 % of control and the T/C (endpoint: mean survival time, dose: 200.0 mg/kg/injection, schedule: Q01DX009 (ip), vehicle: saline with Tween-80) was 106 % of control. For the same compound, the T/C [5] was 118 % of control.

`COC12C(COC(N)=O)C3=C(C(=O)C(C)=C(N4CC4)C3=O)N1CC1NC12` (stereo not drawn) was tested, and the T/C (endpoint: mean survival time, dose: 0.14 mg/kg/injection, schedule: Q01DX007 (ip), vehicle: acetone) was 124 % of control, the T/C (endpoint: mean survival time, dose: 0.25 mg/kg/injection, schedule: Q01DX001 (ip), vehicle: acetone) was 106 % of control and the T/C (endpoint: mean survival time, dose: 0.33 mg/kg/injection, schedule: Q01DX001 (ip), vehicle: acetone) was 116 % of control. The T/C (endpoint: mean survival time, dose: 0.5 mg/kg/injection, schedule: Q01DX007 (ip), vehicle: acetone) was 153 % of control, the T/C (endpoint: mean survival time, dose: 1.0 mg/kg/injection, schedule: Q01DX001 (ip), vehicle: carboxymethylcellulose (CMC)) was 151 % of control and the T/C (endpoint: mean survival time, dose: 1.5 mg/kg/injection, schedule: Q01DX001 (ip), vehicle: carboxymethylcellulose (CMC)) was 114 % of control.

`CC(C)(C)C(=O)/C(O)=C\c1ccccc1` was tested, and the T/C [1] was 105 % of control, the T/C [2] was 100 % of control and the T/C [3] was 98 % of control.

`CC(C)c1ccc(N=Nc2ccc(C(C)C)cc2)cc1` was tested, and the T/C [1] was 101 % of control, the T/C [2] was 97 % of control and the T/C [3] was 93 % of control.

`COc1cccc2c1C(CO)N1C(C#N)C3CC(C(=O)O)C(C1C2)N3C` (stereo not drawn) was tested, and the T/C (endpoint: median survival time, dose: 3.12 mg/kg/injection, schedule: Q01DX005 (ip), vehicle: saline) was 112 % of control, the T/C (endpoint: median survival time, dose: 6.25 mg/kg/injection, schedule: Q01DX005 (ip), vehicle: saline) was 110 % of control and the T/C (endpoint: median survival time, dose: 9.0 mg/kg/injection, schedule: Q01DX005 (ip), vehicle: suspension in saline) was 120 % of control and 111 % of control. The T/C (endpoint: median survival time, dose: 12.5 mg/kg/injection, schedule: Q01DX005 (ip), vehicle: saline) was 112 % of control, the T/C (endpoint: median survival time, dose: 15.0 mg/kg/injection, schedule: Q01DX005 (ip), vehicle: suspension in saline) was 124 % of control and the T/C (endpoint: median survival time, dose: 41.67 mg/kg/injection, schedule: Q01DX005 (ip), vehicle: suspension in saline) was 87 % of control. For the same compound, the T/C (endpoint: median survival time, dose: 50.0 mg/kg/injection, schedule: Q01DX005 (ip), vehicle: saline) was 89 % of control.

`CCC(CCC(C)C1CCC2C3CC=C4CC(O)CCC4(C)C3CCC12C)C(C)C` (stereo not drawn) (tested in a mixture with another compound) was tested, and the T/C (endpoint: mean survival time, dose: 25.0 mg/kg/injection, schedule: Q01DX009 (ip), vehicle: acetone) was 93 % of control and the T/C (endpoint: mean survival time, dose: 100.0 mg/kg/injection, schedule: Q01DX009 (ip), vehicle: acetone) was 87 % of control.

With `CC(=O)OC1C(O)C(OC(=O)c2ccccc2)C(OC(C)=O)C(OC(C)=O)C1OC(C)=O` (stereo not drawn) the T/C (endpoint: mean survival time, dose: 200.0 mg/kg/injection, schedule: Q01DX009 (ip), vehicle: Klucel (hydroxypropylcellulose) (HPC)) was 91 % of control and the T/C (endpoint: mean survival time, dose: 400.0 mg/kg/injection, schedule: Q01DX009 (ip), vehicle: Klucel (hydroxypropylcellulose) (HPC)) was 88 % of control.

For `CCOC(=O)C(C)C(C)(O)c1ccccc1` (stereo not drawn), the T/C [4] was 97 % of control, the T/C [5] was 97 % of control and the T/C (endpoint: mean survival time, dose: 400.0 mg/kg/injection, schedule: Q04DX003 (ip), vehicle: saline with Tween-80) was 98 % of control.

In the case of `CC(C)NCC(O)c1ccc(O)c(O)c1.[Pt].c1ccc([PH+](c2ccccc2)c2ccccc2)cc1.c1ccc([PH+](c2ccccc2)c2ccccc2)cc1`, the T/C (endpoint: median survival time, dose: 10.0 mg/kg/injection, schedule: Q04DX003 (ip), vehicle: saline with Tween-80) is reported as 108 % of control, the T/C (endpoint: median survival time, dose: 20.0 mg/kg/injection, schedule: Q04DX003 (ip), vehicle: saline with Tween-80) is reported as 105 % of control and the T/C (endpoint: median survival time, dose: 40.0 mg/kg/injection, schedule: Q04DX003 (ip), vehicle: saline with Tween-80) is reported as 105 % of control. The T/C (endpoint: median survival time, dose: 50.0 mg/kg/injection, schedule: Q04DX003 (ip), vehicle: saline with Tween-80) was 101 % of control, the T/C (endpoint: median survival time, dose: 80.0 mg/kg/injection, schedule: Q04DX003 (ip), vehicle: saline with Tween-80) was 102 % of control and the T/C (endpoint: median survival time, dose: 100.0 mg/kg/injection, schedule: Q04DX003 (ip), vehicle: saline with Tween-80) was 98 % of control.

`CC(O)CNCCNc1ccc(NCCNCC(C)O)c2c1C(=O)c1c(O)ccc(O)c1C2=O` (stereo not drawn) was tested, and the T/C (endpoint: mean survival time, dose: 0.25 mg/kg/injection, schedule: Q01DX005 (ip), vehicle: water) was 123 % of control, the T/C (endpoint: mean survival time, dose: 0.5 mg/kg/injection, schedule: Q01DX005 (ip), vehicle: water) was 123 % of control and the T/C (endpoint: mean survival time, dose: 8.0 mg/kg/injection, schedule: Q01DX005 (ip), vehicle: water) was 165 % of control.
